# Reference: patent US11352356B2, “Inhibitors of plasma kallikrein and uses thereof” (Takeda Pharmaceutical Company Limited, priority 2018, dated 2022)
# Target: human activated kallikrein enzyme (Homo sapiens (Human), UniProt P03952)
# Assay: Inhibition of human activated plasma kallikrein, fluorogenic peptide substrate assay, 500 pM enzyme format
# Format: biochemical
# Conditions: 500 pM activated kallikrein, 300 uM Pro-Phe-Arg-7-amido-4-methylcoumarin substrate, 30 min preincubation, 10 min reaction at RT; read-out: Primary Dose Response Assay: Average EC50
# Protocol: Example compounds were evaluated for inhibition of the human activated kallikrein enzyme in two formats of an assay employing a fluorogenic peptide substrate. In one assay format, the concentrations of reagents were as follows: 20 mM Tris pH 7.5, 1 mM EDTA, 150 mM sodium chloride, 0.1% PEG-400, 0.1% Triton X-100, 500 pM activated kallikrein enzyme, 300 uM Pro-Phe-Arg-7-amido-4-methylcoumarin substrate. Prior to reaction initiation with substrate, enzyme and inhibitors were preincubated for 30 min at RT. After initiation with substrate, reactions were incubated for 10 min at RT and fluorescence emission at 460 nm from 380 nm excitation measured with a microplate reader. In another assay format, the concentrations of reagents were as follows: 20 mM Tris pH 7.5, 1 mM EDTA, 150 mM sodium chloride, 0.1% PEG-400, 0.1% Triton X-100, 5 pM activated kallikrein enzyme, 300 uM Pro-Phe-Arg-7-amido-4-methylcoumarin substrate. Prior to reaction initiation with substrate, enzyme and inhibitors were preincubated for 30 min at RT. After initiation with substrate, reactions were incubated for 18 h at RT and fluorescence emission at 460 nm from 380 nm excitation measured with a microplate reader.
# Chain of human activated kallikrein enzyme (P03952 391-638): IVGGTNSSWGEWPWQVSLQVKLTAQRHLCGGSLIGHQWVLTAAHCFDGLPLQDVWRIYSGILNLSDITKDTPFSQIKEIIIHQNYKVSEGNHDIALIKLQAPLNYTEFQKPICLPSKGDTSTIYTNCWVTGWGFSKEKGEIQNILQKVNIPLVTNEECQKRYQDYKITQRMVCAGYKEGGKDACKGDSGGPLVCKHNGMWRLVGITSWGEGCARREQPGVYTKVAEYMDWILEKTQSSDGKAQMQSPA
# Chain of human activated kallikrein enzyme (P03952 20-390 partner): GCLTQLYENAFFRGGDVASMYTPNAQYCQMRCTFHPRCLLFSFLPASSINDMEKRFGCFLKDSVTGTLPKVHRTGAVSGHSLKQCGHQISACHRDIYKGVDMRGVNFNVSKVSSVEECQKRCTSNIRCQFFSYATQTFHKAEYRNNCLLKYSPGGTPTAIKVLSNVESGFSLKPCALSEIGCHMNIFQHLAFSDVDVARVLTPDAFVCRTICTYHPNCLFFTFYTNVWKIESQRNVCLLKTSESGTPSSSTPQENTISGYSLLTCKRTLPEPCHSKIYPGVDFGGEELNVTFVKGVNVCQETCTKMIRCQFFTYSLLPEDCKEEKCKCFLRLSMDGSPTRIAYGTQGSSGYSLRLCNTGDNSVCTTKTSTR
row,EC50 [nM],Compound
1,1 to 10,"O=C(NCc1ncn2ccc(Cl)cc12)c1cnn(Cc2cn3nc(C4CC4)ccc3n2)c1 [I-11, N-((7-chloroimidazo[1,5-a]pyridin-1-yl)methyl)-1-((6-cyclopropylimidazo[1,2-b]pyridazin-2-yl)methyl)-1H-pyrazole-4-carboxamide]"
2,10 to 100,"COc1ccc2nc(CNC(=O)c3cnn(Cc4cn5ccc(C6CC6)cc5n4)c3)cn2c1 [I-12, 1-((7-cyclopropylimidazo[1,2-a]pyridin-2-yl)methyl)-N-((6-methoxyimidazo[1,2-a]pyridin-2-yl)methyl)-1H-pyrazole-4-carboxamide]"
3,10 to 100,"O=C(NCc1ncn2ccc(Cl)c(F)c12)c1cn(Cc2cc3ccc(C4CC4)cc3o2)nn1 [I-219, N-((7-chloro-8-fluoroimidazo[1,5-a]pyridin-1-yl)methyl)-1-((6-cyclopropylbenzofuran-2-yl)methyl)-1H-1,2,3-triazole-4-carboxamide]"
4,1 to 10,"CCOC(=O)CCn1c(Cn2cc(C(=O)NCc3ncn4ccc(Cl)c(F)c34)nn2)cc2cc(C3CC3)ccc21 [I-251a, Ethyl 3-(2-((4-(((7-chloro-8-fluoroimidazo[1,5-a]pyridin-1-yl)methyl)carbamoyl)-1H-1,2,3-triazol-1-yl)methyl)-5-cyclopropyl-1H-indol-1-yl)propanoate]"
5,10 to 100,"O=C(NCc1ncn2ccc(Cl)c(F)c12)c1cn(Cc2cn3ccccc3n2)nn1 [I-286, N-((7-chloro-8-fluoroimidazo[1,5-a]pyridin-1-yl)methyl)-1-(imidazo[1,2-a]pyridin-2-ylmethyl)-1H-1,2,3-triazole-4-carboxamide]"
6,10 to 100,"O=C(NCc1ncn2ccc(Cl)c(F)c12)c1cn(Cc2ccc3nccnc3c2)nn1 [I-292, N-((7-chloro-8-fluoroimidazo[1,5-a]pyridin-1-yl)methyl)-1-(quinoxalin-6-ylmethyl)-1H-1,2,3-triazole-4-carboxamide]"
7,< 1,"N-((7-chloroimidazo[1,5-a]pyridin-1-yl)methyl)-1-((6-cyclopropyl-8-(2-methoxyethoxy)imidazo[1,2-a]pyridin-2-yl)methyl)-1H-pyrazole-4-carboxamide [I-103]"
8,< 1,"N-((7-chloroimidazo[1,5-a]pyridin-1-yl)methyl)-1-((8-(1-(hydroxymethyl)cyclopropyl)imidazo[1,2-a]pyridin-2-yl)methyl)-1H-pyrazole-4-carboxamide [I-117]"

# The next lines start with the compound.
row,Compound,EC50 [nM]
1,"1-(2-((4-(((7-chloroimidazo[1,5-a]pyridin-1-yl)methyl)carbamoyl)-1H-pyrazol-1-yl)methyl)imidazo[1,2-a]pyridin-8-yl)cyclopropane-1-carboxylic acid [I-116]",1 to 10
2,"O=C(NCc1ncn2ccc(Cl)c(F)c12)c1cn(Cc2cn3cc(C4CC4)cc(CC(F)C(=O)O)c3n2)nn1 (centres unmarked) [I-224b, 3-(2-((4-(((7-chloro-8-fluoroimidazo[1,5-a]pyridin-1-yl)methyl)carbamoyl)-1H-1,2,3-triazol-1-yl)methyl)-6-cyclopropylimidazo[1,2-a]pyridin-8-yl)-2-fluoropropanoic acid]",< 1
3,"CC(C)(C(=O)O)C(O)c1cc(C2CC2)cn2cc(Cn3cc(C(=O)NCc4ncn5ccc(Cl)c(F)c45)nn3)nc12 (centres unmarked) [I-241b, 3-(2-((4-(((7-chloro-8-fluoroimidazo[1,5-a]pyridin-1-yl)methyl)carbamoyl)-1H-1,2,3-triazol-1-yl)methyl)-6-cyclopropylimidazo[1,2-a]pyridin-8-yl)-3-hydroxy-2,2-dimethylpropanoic acid]",< 1
4,"Ethyl 1-(2-((4-(((7-chloroimidazo[1,5-a]pyridin-1-yl)methyl)carbamoyl)-1H-pyrazol-1-yl)methyl)imidazo[1,2-a]pyridin-8-yl)cyclopropane-1-carboxylate [I-115]",< 1
5,"N-((7-chloro-8-fluoroimidazo[1,5-a]pyridin-1-yl)methyl)-1-((8-(2-cyano-2-methylpropyl)-6-cyclopropylimidazo[1,2-a]pyridin-2-yl)methyl)-1H-pyrazole-4-carboxamide [I-237]",< 1

# Same assay, conditions: comparative compounds; 500 pM activated kallikrein format; read-out: Primary Dose Response Assay: Average EC50
row,EC50 [nM],Compound
1,100 to 2000,Cc1ccn2cc(Cn3cc(C(=O)NCc4cnc5ccc(Cl)cn45)cn3)nc2c1 [reference compound]
